Among the data in patent publication EP2459551B1, “DIHYDROBENZOINDAZOLES” (Merck Sharp & Dohme B.V., priority 2009, dated 2011) are EC50 values, retold here.

In general, EC50 refers to the concentration that produces a half-maximal response. Lower therefore signals higher potency in that assay.

The target of this assay is T1, human FSH receptor (Homo sapiens, UniProt P23945).
T1 sequence (P23945 18-695): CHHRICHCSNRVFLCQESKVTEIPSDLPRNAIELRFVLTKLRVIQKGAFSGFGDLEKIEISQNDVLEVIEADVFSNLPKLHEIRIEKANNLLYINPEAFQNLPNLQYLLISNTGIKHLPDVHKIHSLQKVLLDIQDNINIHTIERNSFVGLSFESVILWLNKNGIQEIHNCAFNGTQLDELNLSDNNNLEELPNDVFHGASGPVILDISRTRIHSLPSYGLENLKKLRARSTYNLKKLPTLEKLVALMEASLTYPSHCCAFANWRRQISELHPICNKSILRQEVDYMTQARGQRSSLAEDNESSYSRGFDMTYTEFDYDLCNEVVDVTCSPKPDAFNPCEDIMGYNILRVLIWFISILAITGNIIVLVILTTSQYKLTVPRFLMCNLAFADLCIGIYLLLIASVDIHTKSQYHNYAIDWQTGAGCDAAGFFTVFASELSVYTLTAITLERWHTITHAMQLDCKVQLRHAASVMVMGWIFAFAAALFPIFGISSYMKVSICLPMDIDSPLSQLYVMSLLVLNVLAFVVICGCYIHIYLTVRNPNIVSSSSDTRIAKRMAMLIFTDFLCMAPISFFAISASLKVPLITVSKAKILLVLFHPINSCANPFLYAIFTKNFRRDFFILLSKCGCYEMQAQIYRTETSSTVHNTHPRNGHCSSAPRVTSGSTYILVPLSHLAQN

Structures are written as SMILES.
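Also: CHO cells stably expressing human FSH receptor with CRE-driven firefly luciferase, luminescence read as counts per second after 4 h compound exposure in 1% DMSO.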

Description: Agonistic activity of compounds at the human FSH receptor expressed in CHO cells
Agonistic activity of the compounds at the human FSH receptor was determined in Chinese Hamster Ovary (CHO) cells stably transfected with the human FSH receptor and cotransfected with a cAMP responsive element (CRE)/promotor directing the expression of a firefly luciferase reporter gene. […] Cells (7,500 cells/well of a 384 well plate) were incubated in Dulbecco' minimal essential F12 modified medium (Invitrogen), supplemented with 1 µg/ml bovine insulin, 5 µg/ml human apotransferrin, 80 U/ml penicillin G and 80 µg/ml streptomycin with the test compounds (concentration between 0.0316 nM and 10.0 µM) in duplicate in a humidified atmosphere (95%) at 5-7% CO2 and 37°C. The final concentration of DMSO was 1%. After 4 hours of incubation, plates were allowed to adjust to room temperature for 1 hour. Then, Luclite (PerkinElmer) solution was added to the wells and cells were allowed to lyse for at least 1 hour at room temperature. Subsequently, luciferase activity was measured in a luminescence counter. The signal is expressed as counts per second (cps). The EC50 (concentration of the test compound that elicits half-maximal (50 %) luciferase stimulation compared to the compound's maximally attainable effect) and efficacy values (maximal effect of the test compound as percentage of the maximal effect of recombinant human FSH) of the compounds were determined using the software program MathIQ (version 2.0, ID Business Solutions Limited).

The molecule `COc1cc2c(cc1OC(C)C)-c1c(c(C(=O)N(C)C(C)(C)C)nn1-c1cccc([N+](=O)[O-])c1)CC2` [Example 8ca, N-tert-butyl-8-isopropoxy-7-methoxy-N-methyl-1-(3-nitrophenyl)-4,5-dihydro-1H-benzo[g]indazole-3-carboxamide] displayed an EC50 of 1000 to 10000 nM.
`COc1cccc(-n2nc(C(=O)N(C)C(C)(C)C)c3c2-c2cc(OC(C)C)c(OC)cc2CC3)c1` [Example 8cc, N-tert-butyl-8-isopropoxy-7-methoxy-1-(3-methoxyphenyl)-N-methyl-4,5-dihydro-1H-benzo[g]indazole-3-carboxamide] showed an EC50 of 100 to 1000 nM.
The same measure for `C=C(C)c1cccc(-n2nc(C(=O)N(C)C(C)(C)C)c3c2-c2cc(OC(C)C)c(OC)cc2CC3)c1` [Example 7cb, N-tert-butyl-8-isopropoxy-7-methoxy-N-methyl-1-(3-(prop-1-en-2-yl)phenyl)-4,5-dihydro-1H-benzo[g]indazole-3-carboxamide]: 1000 to 10000 nM; for `COc1cc2c(cc1OC(C)C)-c1c(c(C(=O)N(C)C(C)(C)C)nn1-c1ccc(Cl)cc1)CC2` [Example 13ce, N-tert-butyl-1-(4-chlorophenyl)-8-isopropoxy-7-methoxy-N-methyl-4,5-dihydro-1H-benzo[g]indazole-3-carboxamide]: 100 to 1000 nM; for `COc1cc2c(cc1OC(C)C)-c1c(c(C(=O)N(C)C(C)(C)C)nn1-c1cccc(F)c1)CC2` [Example 8cb, N-tert-butyl-1-(3-fluorophenyl)-8-isopropoxy-7-methoxy-N-methyl-4,5-dihydro-1H-benzo[g]indazole-3-carboxamide]: 100 to 1000 nM.
